The values below come from patent publication US7745446B2, “Pyrazolo[1,5-c]pyrimidines” (Bayer Schering Pharma Aktiengesellschaft, priority 2004, dated 2010).

One test has as its target T1, GST-ΔPH-Akt1 (Homo sapiens, UniProt P31749).
T1 construct: named GST-deltaPH-Akt1; 107-480aa; cloned in the pAcGl vector; GST (N); made in house; host or cells: SF9 insect cells (baculovirus vector pAcG1), co-expressed with PDK1
Nature of the test: Biochemical ΔPH Akt1 assay (flashplate, 33P incorporation into histone 2B). The following applies: 100 nM ATP, histone 2B substrate; read-out: ΔPHAkt1 inhibition: IC50. An excerpt:
For the biochemical assay ΔPHAkt1 is used devoid of its PH domain as a GST fusion protein (named GST-deltaPH-Akt1; 107-480aa; cloned in the pAcGl vector (BD Biosciences Pharmingen)), co-expressed with PDK1 in SF9 insect cells. The protein is purified using glutathion-affinity chromatography by standard protocols.
In order to study the inhibition of Akt according to the invention, a flashplate-based assay has been developed.
The Akt1 assay is a biochemical assay using Akt1 devoid of its PH domain and co-expressed with PDK1 in insect cells. The GST-ΔPH-Akt1 assay is run in 96 well plates by incubating 100 ng/well GST-ΔPH-Akt1, 100 ng/well histone 2B (Roche, #223514) as substrate, 10 μl of compound of invention (test compounds were dissolved as 10 mM solutions in dimethylsulfoxide (DMSO) and subsequently diluted) and 100 nM ATP (including ^33P-ATP) in 100 μl of reaction buffer ([…], pH7,5; 3 mM MgCl2; 3 mM MnCl2; 3 μM Na-Orthovanadat; 1 mM DTT; 1 μg/ml PEG8000) for 80 minutes at 30° C. The reactions are terminated by adding 100 μl stopping buffer (2% H3PO4 for 5 minutes) and are washed 3 times by using washing buffer (0.9% NaCl). Relying on the incorporation of ^33P into the protein substrate histone 2B, the detection is based on the adhesion of the phosphorylated protein to the surface of scintillator-coated flash plates (NEN, USA; #SMP-200). This phosphorylation is measured by counting the plate for 60 sec. using a plate reader (Wallac Microbeta; Perkin Elmer, USA).

The subject of another test is MDA-MB-468 cells. Nature of the test: Cellular proliferation/cytotoxicity assay (Alamar Blue), MDA-MB-468. The following applies: Homo sapiens, MDA-MB-468, 48 h, read-out: Anti-proliferative/cytotoxic activity: IC50 MDA468. On the technique in general: Resazurin is reduced to fluorescent resorufin, in cell work by metabolically active cells.
The target in the next test is T2, PKA (Homo sapiens, UniProt P17612).
T2 construct: His; purchased PanVera, USA #R3791; host or cells: E. coli
Nature of the test: Biochemical PKA assay (flashplate). The following applies: 100 nM ATP; read-out: PKA inhibition: −log IC50 (converted). Here is the method: For the biochemical PKA assay the catalytic subunit of PKA is expressed in E. coli as a His-tagged human recombinant protein and purified accordingly (PanVera, USA; #R3791).
In order to study the kinase inhibition activity of the compounds according to the invention, a flashplate-based assay has been developed for the serine/threonine kinase, PKA. The assay is run in 96 well plates by incubating 1 ng/well His-PKA (PanVera, USA; #R3791), 0.5 μM/well PKA peptide (#12-394; Upstate, USA) as substrate, 10 μl of compound of invention (test compounds were dissolved as 10 mM solutions in dimethylsulfoxide (DMSO) and subsequently diluted) and 100 nM ATP (including ^33P-ATP) in 100 μl of reaction buffer ([…], pH7,5; 3 mM MgCl2; 3 mM MnCl2; 3 μM Na-Orthovanadat; 1 mM DTT) for 80 minutes at 22° C. The reactions are stopped by adding 100 μl stopping buffer (2% H3PO4 for 5 minutes) and are washed 3 times by using washing buffer (200 μl 1×PBS). Relying on the incorporation of ^33P into the peptide substrate, the detection is based on the adhesion of the phosphorylated peptide to the surface of scintillator-coated Flash plates (Perkin Elmer, USA; #SMP-103). This phosphorylation is measured by counting the plate for 60 sec. using a plate reader (Wallac Microbeta; Perkin Elmer, USA). By using this method the IC50 of the PKA inhibition is determined.

For another test, the system named is MCF7 cells. The test is described as follows: Cellular proliferation/cytotoxicity assay (Alamar Blue), MCF7. The following applies: Homo sapiens, MCF7, 48 h, read-out: Anti-proliferative/cytotoxic activity: IC50 MCF7.

A value given as a limit tells only on which side of the number the result lay.

T1 sequence (P31749 107-480, stated change not applied): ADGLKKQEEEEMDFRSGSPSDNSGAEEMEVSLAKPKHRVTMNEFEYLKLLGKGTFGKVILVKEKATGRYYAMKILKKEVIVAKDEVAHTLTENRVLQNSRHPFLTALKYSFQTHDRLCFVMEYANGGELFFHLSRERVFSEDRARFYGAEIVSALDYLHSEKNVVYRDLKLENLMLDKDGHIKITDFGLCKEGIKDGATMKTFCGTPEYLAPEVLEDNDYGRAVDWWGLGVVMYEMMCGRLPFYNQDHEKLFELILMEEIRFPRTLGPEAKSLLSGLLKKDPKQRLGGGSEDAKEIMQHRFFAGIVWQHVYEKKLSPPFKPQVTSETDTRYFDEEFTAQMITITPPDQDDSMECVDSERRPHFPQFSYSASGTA

For the compound `NCC(C(=O)Nc1cccc(Nc2nc(-c3cccc4c3oc3ccccc34)cc3ccnn23)c1)c1ccc(Cl)c(Cl)c1` (racemic) [Example 41, rac-3-Amino-N-[3-(5-dibenzofuran-4-yl-pyrazolo[1,5-c]pyrimidin-7-ylamino)-phenyl]-2-(3,4-dichloro-phenyl)-propionamide], the IC50 at GST-ΔPH-Akt1 was no more than 1.75 µM; in the test with MDA-MB-468 cells it was no more than 13.6 µM; at PKA, greater than 100 µM; with MCF7 cells it was no more than 16.9 µM.

Turning to `NCCC(C(=O)Nc1ccc(Nc2nc(-c3cccc4c3oc3ccccc34)cc3ccnn23)cc1)c1ccc(Cl)c(Cl)c1` (racemic) [Example 43, rac-4-Amino-N-[4-(5-dibenzofuran-4-yl-pyrazolo[1,5-c]pyrimidin-7-ylamino)-phenyl]-2-(3,4-dichloro-phenyl)-butyramide], the IC50 on GST-ΔPH-Akt1 is no more than 1.75 µM; in the test with MDA-MB-468 cells, no more than 13.6 µM; at PKA it was 6.31 to 100 µM; in the test with MCF7 cells, no more than 16.9 µM.

Take `NCc1ccc(C(=O)Nc2ccc(Nc3nc(-c4ccc(-c5ccccc5)cc4)cc4ccnn34)cc2)cc1` [Example 1, 4-Aminomethyl-N-[4-(5-biphenyl-4-yl-pyrazolo[1,5-c]pyrimidin-7-ylamino)-phenyl]-benzamide]: the IC50 on GST-ΔPH-Akt1 was no more than 1.75 µM; in the test on MDA-MB-468 cells it was no more than 13.6 µM; on PKA, greater than 100 µM; in the test on MCF7 cells, no more than 16.9 µM.

In the case of `NCc1cccc(C(=O)Nc2ccc(Nc3nc(-c4cccc5c4oc4ccccc45)cc4ccnn34)cc2)c1` [Example 20, 3-Aminomethyl-N-[4-(5-dibenzofuran-4-yl-pyrazolo[1,5-c]pyrimidin-7-ylamino)-phenyl]-benzamide], the IC50 on GST-ΔPH-Akt1 is no more than 1.75 µM; with MDA-MB-468 cells it was no more than 13.6 µM; in the test on MCF7 cells it was no more than 16.9 µM.

For `NCCc1ccc(C(=O)Nc2ccc(Nc3nc(-c4cccc5c4oc4ccccc45)cc4ccnn34)cc2)cc1` [Example 23, 4-(2-Amino-ethyl)-N-[4-(5-dibenzofuran-4-yl-pyrazolo[1,5-c]pyrimidin-7-ylamino)-phenyl]-benzamide], the IC50 at GST-ΔPH-Akt1 is no more than 1.75 µM; with MDA-MB-468 cells, no more than 13.6 µM; at PKA it was greater than 100 µM; in the test on MCF7 cells it was no more than 16.9 µM.

As to `NCc1ccc(C(=O)Nc2cccc(Nc3nc(-c4cccc5c4oc4ccccc45)cc4ccnn34)c2)c(F)c1` [Example 27, 4-Aminomethyl-N-[3-(5-dibenzofuran-4-yl-pyrazolo[1,5-c]pyrimidin-7-ylamino)-phenyl]-2-fluoro-benzamide], the IC50 was no more than 1.75 µM at GST-ΔPH-Akt1, no more than 13.6 µM in the test on MDA-MB-468 cells, greater than 100 µM at PKA and no more than 16.9 µM with MCF7 cells.

With `NCc1ccc(C(=O)Nc2ccc(Nc3nc(-c4cccc5c4oc4ccccc45)cc4ccnn34)cc2)c(F)c1` [Example 28, 4-Aminomethyl-N-[4-(5-dibenzofuran-4-yl-pyrazolo[1,5-c]pyrimidin-7-ylamino)-phenyl]-2-fluoro-benzamide], the IC50 at GST-ΔPH-Akt1 is no more than 1.75 µM; in the test on MDA-MB-468 cells, no more than 13.6 µM; on PKA it was greater than 100 µM; with MCF7 cells, no more than 16.9 µM.

On to `NCc1cc(C(=O)Nc2ccc(Nc3nc(-c4cccc5c4oc4ccccc45)cc4ccnn34)cc2)ccn1` [Example 30, 2-Aminomethyl-N-[4-(5-dibenzofuran-4-yl-pyrazolo[1,5-c]pyrimidin-7-ylamino)-phenyl]-isonicotinamide], for which the IC50 at GST-ΔPH-Akt1 is no more than 1.75 µM; on PKA, greater than 100 µM.

With `CC(C)(N)c1ccc(C(=O)Nc2cccc(Nc3nc(-c4cccc5c4oc4ccccc45)cc4ccnn34)c2)cc1` [Example 40, 4-(1-Amino-1-methyl-ethyl)-N-[3-(5-dibenzofuran-4-yl-pyrazolo[1,5-c]pyrimidin-7-ylamino)-phenyl]-benzamide], the IC50 at GST-ΔPH-Akt1 was no more than 1.75 µM; on PKA, 6.31 to 100 µM.

With `COc1ccc2cc(-c3cc4ccnn4c(Nc4ccc(NC(=O)c5ccc(CN)cc5)cc4)n3)ccc2c1` [Example 45, 4-Aminomethyl-N-{4-[5-(6-methoxy-naphthalen-2-yl)-pyrazolo[1,5-c]pyrimidin-7-ylamino]-phenyl}-benzamide], the IC50 at GST-ΔPH-Akt1 is no more than 1.75 µM; with MDA-MB-468 cells, no more than 13.6 µM; in the test with MCF7 cells, no more than 16.9 µM.

Regarding `N=C(N)Nc1ccc(C(=O)Nc2ccc(Nc3nc(-c4cccc5c4oc4ccccc45)cc4ccnn34)cc2)cc1` [Example 48, N-[4-(5-Dibenzofuran-4-yl-pyrazolo[1,5-c]pyrimidin-7-ylamino)-phenyl]-4-guanidino-benzamide], the IC50 was no more than 1.75 µM at GST-ΔPH-Akt1 and greater than 100 µM at PKA.

As to `NCc1cccc(C(=O)Nc2ccc(Nc3nc(-c4cccc5c4oc4ccccc45)cc4ccnn34)cc2)n1` [Example 51, 6-Aminomethyl-pyridine-2-carboxylic acid [4-(5-dibenzofuran-4-yl-pyrazolo[1,5-c]pyrimidin-7-ylamino)-phenyl]-amide], the values for the IC50 at GST-ΔPH-Akt1 and at PKA were no more than 1.75 µM and greater than 100 µM, respectively.

In the case of `NCc1ccc(C(=O)Nc2ccc(Nc3nc(-c4ccc(-c5ccccc5)nc4)cc4ccnn34)cc2)cc1` [Example 54, 4-Aminomethyl-N-{4-[5-(6-phenyl-pyridin-3-yl)-pyrazolo[1,5-c]pyrimidin-7-ylamino]-phenyl}-benzamide], the figures for the IC50 on GST-ΔPH-Akt1 and at PKA were no more than 1.75 µM and 6.31 to 100 µM, respectively.

Take `CC(=O)Nc1cccc(-c2ccc(-c3cc4ccnn4c(Nc4ccc(NC(=O)c5ccc(CN)cc5)cc4)n3)cc2)c1` [Example 60, N-{4-[5-(3′-Acetylamino-biphenyl-4-yl)-pyrazolo[1,5-c]pyrimidin-7-ylamino]-phenyl}-4-aminomethyl-benzamide]: the IC50 was no more than 1.75 µM on GST-ΔPH-Akt1 and 6.31 to 100 µM at PKA.

`COc1cccc(-c2ccc(-c3cc4ccnn4c(Nc4ccc(NC(=O)c5ccc(CCN)cc5)cc4)n3)cc2)c1` [Example 78, 4-(2-Amino-ethyl)-N-{4-[5-(3′-methoxy-biphenyl-4-yl)-pyrazolo[1,5-c]pyrimidin-7-ylamino]-phenyl}-benzamide]: the figures for the IC50 on GST-ΔPH-Akt1, in the test with MDA-MB-468 cells and in the test on MCF7 cells were no more than 1.75 µM, no more than 13.6 µM and no more than 16.9 µM, respectively.

For `O=C(Nc1ccc(Nc2nc(-c3ccc(-c4cccc([N+](=O)[O-])c4)cc3)cc3ccnn23)cc1)c1ccc2c(c1)CCNC2` [Example 80, 1,2,3,4-Tetrahydro-isoquinoline-6-carboxylic acid {4-[5-(3′-nitro-biphenyl-4-yl)-pyrazolo[1,5-c]pyrimidin-7-ylamino]-phenyl}-amide], the IC50 on GST-ΔPH-Akt1 is no more than 1.75 µM; in the test with MDA-MB-468 cells it was no more than 13.6 µM; with MCF7 cells, no more than 16.9 µM.

As to `NCCc1ccc(C(=O)Nc2ccc(Nc3nc(-c4ccc(-c5cccc([N+](=O)[O-])c5)cc4)cc4ccnn34)cc2)cc1` [Example 81, 4-(2-Amino-ethyl)-N-{4-[5-(3′-nitro-biphenyl-4yl)-pyrazolo[1,5-c]pyrimidin-7-ylamino]-phenyl}-benzamide], the IC50 on GST-ΔPH-Akt1 was no more than 1.75 µM; with MDA-MB-468 cells, no more than 13.6 µM; in the test on MCF7 cells, no more than 16.9 µM.

Consider `O=C(Nc1ccc(Nc2nc(-c3ccc(Br)cc3)cc3ccnn23)cc1)c1ccc2c(c1)CCNC2` [Example 85, 1,2,3,4-Tetrahydro-isoquinoline-6-carboxylic acid {4-[5-(4-bromo-phenyl)-pyrazolo[1,5-c]pyrimidin-7-ylamino]-phenyl}-amide], for which the IC50 on GST-ΔPH-Akt1 was no more than 1.75 µM; in the test on MDA-MB-468 cells, no more than 13.6 µM; in the test on MCF7 cells, no more than 16.9 µM.
